Data set [1] can be described thus: Determination KL-Z and εmax. The data set is classed as physicochemical. As for the experimental part: Determination KL-Z and εmax. The lactone-zwitterion equilibrium constant (KL-Z) was calculated as described previously^18,41 using equation 1: KL-Z=(εdw/εmax)/(1−εdw/εmax) (1) • where εdw is the extinction coefficient of the dyes in a 1:1 (v/v) dioxane:water solvent mixture containing 0.01% (v/v) triethylamine; the dioxane-water mixture was chosen to give a large range of KL-Z values and the triethylamine additive ensures the rhodamines are in the net neutral form. The emax (maximal extinction coefficient) values were measured in 0.1% (v/v) trifluoroacetic acid (TFA) in 2,2,2-trifluoroethanol (TFE) for rhodaminc 10, and 0.1% (v/v) TFA in ethanol for the Si-rhodamine 8.
Instead, a solution of strong acid in alcoholic solvents was used (e.g., TFA in […]) to shift the equilibrium to the open form by protonation of the o-carboxyl group. This decades-old procedure^36 allows estimation of the maximal extinction coefficient (εmax) and determination of KL-Z=(ε/εmax)/(1−ε/εmax).
The KL-Z was determined using ε values measured in 1:1 dioxane:water to ensure a broad distribution of values.^18 An inverse relationship was observed between KL-Z and fluorogenicity, showing that KL-Z is sufficient to accurately predict the increase in fluorescence of rhodamine dyes. This increase in fluorescence is primarily driven by the increase in absorption; chromogenicity is correlated both with KL-Z and fluorogenicity (FIGS. 11E-11J). Importantly, this trend holds across different rhodamine scaffolds including Si-rhodamines (1-3), carborhodamines (4-5), and classic, oxygen-containing rhodamines (6-7, FIG. 1C). Based on this inverse relationship a simple rubric was determined: a dye with KL-Z<10^−2 should yield a HaloTag ligand with at least 10-fold fluorogenicity (FIG. 1E).

Data set [2] in a line: UV-vis and fluorescence spectroscopy. As to conditions: 10 mM HEPES, pH 7.3. The data set is classed as physicochemical. As for the experimental part: UV-vis and fluorescence spectroscopy. […] Spectroscopy was performed using 1-cm path length, 3.5-mL quartz cuvettes or 1-cm path length, 1.0-ml quartz microcuvettes (Starna Cells). All measurements were taken at ambient temperature (22±2° C.). Absorption spectra were recorded on a Cary Model 100 spectrometer (Agilent). Fluorescence spectra were recorded on a Cary Eclipse fluorometer (Varian). Maximum absorption wavelength (λabs), extinction coefficient (εw), and maximum emission wavelength (λem) were taken in 10 mM HEPES, pH 7.3 buffer unless otherwise noted; reported values for ew are averages (n=3). Normalized spectra are shown for clarity.

A short description of data set [3]: Quantum yield determination. The data set is classed as physicochemical. As to conditions: absolute, integrating sphere. On the procedure: Quantum yield determination. All reported absolute fluorescence quantum yield values (Φ) were measured in the laboratory under identical conditions using a Quantaurus-QY spectrometer (model C11374, Hamamatsu). This instrument uses an integrating sphere to determine photons absorbed and emitted by a sample. Measurements were carried out using dilute samples (A<0.1) and self-absorption corrections were performed using the instrument software^57 when appropriate. Reported values are averages (n=3).

A further data set relates to histone H2B-HaloTag. Briefly: Comparison of HaloTag ligands 7HTL and 10HTL in live cells (no-wash). The data set is classed as cell-based. The following applies: 500 nM, 30 min. The text has this: Comparison of HaloTag ligands 7HTL and 10HTL in live cells.
In a further data set the test system is histone H2B-SNAP-tag. Briefly: Comparison of SNAP ligands 7STL and 10STL in live cells (no-wash). Format: cell-based. As to conditions: 1 μM, 1 h. The text has this: Comparison of SNAP ligands 7STL and 10STL in live cells.
Another data set has as its target HaloTag protein (Rhodococcus rhodochrous, UniProt P0A3G2, A155T/A167V/A172T/A224E/C128F/C176G/D78G/E160K/E257K/H272N/K175M/K195N/L47V/L88M/N227D/P291S/S2A/S58T/T264A/Y273L/Y87F). Description: Increase in absorption of HaloTag ligands following attachment to HaloTag protein. Format: biochemical. As to conditions: 5 μM ligand, 1.5 equiv HaloTag protein. As for the experimental part: Measurement of increase in absorption of HaloTag ligands 1HTL-10HTL following attachment to HaloTag protein. HaloTag protein was prepared as a 100 μM solution in 75 mM NaCl, 50 mM TRIS·HCl, pH 7.4. Absorption measurements were performed in 1.0-mL quartz cuvettes. HaloTag ligands (5 μM) were dissolved in 10 mM HEPES, pH 7.3 containing 0.1 mg/mL CHAPS. An aliquot of HaloTag protein (75 μL, 7.5 μM, 1.5 equiv) or an equivalent volume of buffer (75 mM NaCl, 50 mM TRIS·HCl, pH 7.4) was added and the resulting mixture was incubated until a consistent absorption signal was observed (˜60 min). Absorption scans are averages (n=2).

In another data set the test system is microtubules. As to conditions: live-cell no-wash imaging.

The values that follow come from patent US12440581B2, “Fluorophores for super-resolution imaging” (HOWARD HUGHES MEDICAL INSTITUTE, priority 2019, dated 2025).

HaloTag protein, sequence (P0A3G2 other isoform, or with tags, fused parts or gaps with the stated changes): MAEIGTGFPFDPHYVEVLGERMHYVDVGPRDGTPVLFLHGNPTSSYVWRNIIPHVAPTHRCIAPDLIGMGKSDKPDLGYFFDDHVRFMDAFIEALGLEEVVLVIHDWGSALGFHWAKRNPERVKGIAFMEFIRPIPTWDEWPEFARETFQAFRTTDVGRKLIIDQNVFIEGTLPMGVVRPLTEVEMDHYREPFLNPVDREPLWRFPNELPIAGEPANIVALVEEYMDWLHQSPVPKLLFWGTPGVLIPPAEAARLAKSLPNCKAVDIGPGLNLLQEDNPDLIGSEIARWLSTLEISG
Experimental for microtubules: Imaging was performed on a LSM880 confocal microscope (Zeiss) using the following configuration: excitation: 514 nm/emission: 526-615 nm (JF526); excitation: 594 nm/emission: 599-734 nm (JF585); excitation: 633 nm/emission: 638-759 nm (JF646 or SiR).

With `O=C([O-])c1ccccc1-c1c2cc(F)c(=[N+]3CC(F)(F)C3)cc-2oc2cc(N3CC(F)(F)C3)c(F)cc12` [dye 10, Janelia Fluor 526], the εmax in data set [1] (0.1% TFA in TFE (rhodamine 10), 0.1% TFA in ethanol (Si-rhodamine 8)) is 118,000 M^−1cm^−1. Moreover, in data set [1] (1:1 (v/v) dioxane:water, 0.01% triethylamine), the “KL-Z (lactone-zwitterion equilibrium constant)” value stood at 0.0050. In addition, in data set [2], the εw is 19,000 M^−1cm^−1, the λabs was 526 nm and the λem came out at 550 nm. Further, the “ϕ (fluorescence quantum yield)” value in data set [3] is 0.87. In addition, the “signal-to-background compared to JF525” value with histone H2B-HaloTag is given as “superior signal-to-background”.

Consider `Nc1nc(OCc2ccc(CNC(=O)c3ccc(C(=O)[O-])c(-c4c5cc(F)c(=[N+]6CC(F)(F)C6)cc-5oc5cc(N6CC(F)(F)C6)c(F)cc45)c3)cc2)c2nc[nH]c2n1` [10STL, JF526-SNAP-tag ligand], for which the “signal-to-background compared to JF525” value in the data set with histone H2B-SNAP-tag was “superior signal-to-background”.

Turning to `O=C(NCCOCCOCCCCCCCl)c1ccc(C(=O)[O-])c(-c2c3cc(F)c(=[N+]4CC(F)(F)C4)cc-3oc3cc(N4CC(F)(F)C4)c(F)cc23)c1` [10HTL, JF526-HaloTag ligand], at HaloTag protein, the “increase of absorbance upon conjugation to purified HaloTag protein” value is reported as “substantial increase”.

For JF526-Taxol [10TXL], the “performance relative to SiR-tubulin (1TXL)” value in the data set on microtubules is “comparable performance”.
